Structures can show the parent of a compound that is named as a salt.
Tests used:
human GPR119 (hGPR119) = biological target: T1, human GPR119 (hGPR119) (Homo sapiens, UniProt Q8TDV5); assay: cAMP accumulation assay, CHO-K1 cells stably expressing human GPR119; assay type: cell-based; conditions: cAMP HTRF, 60 minutes
T1 construct: expressed in transfected cells
T1 sequence (Q8TDV5 1-335): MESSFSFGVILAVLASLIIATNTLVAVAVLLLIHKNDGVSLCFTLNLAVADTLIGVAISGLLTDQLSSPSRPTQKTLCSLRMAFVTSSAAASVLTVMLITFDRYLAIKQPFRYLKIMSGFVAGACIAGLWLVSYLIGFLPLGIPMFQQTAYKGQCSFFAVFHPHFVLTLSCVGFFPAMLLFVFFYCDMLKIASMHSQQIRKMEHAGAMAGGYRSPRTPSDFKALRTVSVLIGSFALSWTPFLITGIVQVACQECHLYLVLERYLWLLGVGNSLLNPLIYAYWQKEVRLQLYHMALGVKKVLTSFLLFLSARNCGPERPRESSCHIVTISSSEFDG
Method: CHO-K1 cells stably expressing human GPR119 (hGPR119) were prepared by transfection of a GPR119-carrying plasmid using Lipofectamine 2000 (following manufacturer instructions). A stable cell line was established using the limiting dilution method with geneticine selection. Assay-ready frozen (ARF) cells were prepared and used throughout the study.
The assay was performed in a 384-well plate format using the cAMP Gs dynamic assay kit from Cisbio. ARF cells expressing hGPR119 were thawed, washed and then resuspended in cAMP stimulation buffer at a cell density of 1.1×10^6 cells/mL. Cells were plated at a density of ˜10,000 cells/well (9 μL/well). Dose response curves for the tested compounds were prepared in a cAMP stimulation buffer, containing 0.1% Tween 80 at 4 fold the final concentration. The compounds were then transferred to the cell plates using BRAVO (3 μL/well) and the plates were incubated for 60 minutes at 37° C./5% CO2. Detection buffer (10 μL, prepared as described in the cAMP Gs dynamic kit) were added to each well, and the plates were incubated at ambient temperature for 1 hr.
RT-FRET was measured using a ClarioSTAR plate reader, calculating the ratio between emissions at 665 nm and 620 nm (HTRF ratio). The HTRF ratio for positive (Max) and negative (Min) controls were used to normalize HTRF data and generate values for % activity. EC50 and Max activity values were determined using a standard 4-parameter fit.

[1] = test system: primary human ileal crypt cultures; assay: GLP-1 secretion in human ileal crypt cultures; assay type: cell-based; conditions: 30 μM
Method: The potential for the combination of a compound of Formula (A) and a compound of Formula (B) to induce gut hormone secretion from EECs was assessed using primary human ileal crypt cultures and compared to the effect of the individual agents.

male C57BL/6J mice [2] = assay: Gut hormone (GLP-1) secretion in mice, plasma GLP-1 after oral gavage; assay type: in vivo; conditions: 30 mg/kg of each compound
Method: To determine whether activating two receptors simultaneously results in increased effects on hormone release, representative GPR40 agonists of Formula (B) were tested in combination with a GPR119 agonist of Formula (A). GLP-1 was measured at 5 and 17 h post dose. For the dose titration study, male C57BL/6J mice were acclimated to the facility and the dosing procedure. Mice were weighed and then fasted for 4 h. The mice were administered vehicle, a GPR40 agonist of Formula (B) at 30 mg/kg, a GPR119 agonist of Formula (A) at 30 mg/kg, and the GPR40 agonist of Formula (B) at 0.3, 1, 3, 10, and 30 mg/kg doses in combination with the GPR119 agonist of Formula (A) at 30 mg/kg by oral gavage. Blood was collected at 5 h post-dose or 17 h post-dose, and plasma was assayed for GLP-1.

[3] = test system: diet-induced-obese (DIO) mice; assay: 14-day weight loss in DIO mice; assay type: in vivo; conditions: BID, 13 or 14 days
Method: The effects of a GPR40 Agonist of Formula (B) alone and in combination with a GPR119 Agonist of Formula (A) on body weight were assessed in diet-induced-obese (DIO) mice over 14 days.
Male C57BL/6J DIO mice, approximately 16 weeks old (Jackson Laboratories), were provided 60% high fat diet and water ad libitum. Animals were dosed BID (two times a day) with vehicle for an approximately 3-week until body weight had stabilized. At approximately 20 weeks of age, the mice were randomized into treatment groups (n=8/group) by body weight (range of 37 to 55 g) as well as food intake, and body weight change measured over a two-day baseline period. In order to maximize time on target throughout the day, compounds were administered BID, 8 h apart. Food intake and body weight were measured daily.

male C57BL/6J mice [4] = assay: Glucose excursion during oral glucose tolerance test in mice; assay type: in vivo; conditions: for % Reduction in 2-h glucose AUC vs. vehicle: OGTT, AUC 0 to 120 min, B6, B1, A14 30 mg/kg, linagliptin 0.3 mg/kg, metformin 300 mg/kg, dosed 1 h before glucose
Method: The effects of GPR40 agonists of Formula (B) and a GPR119 agonist of Formula (A) alone and in combination on glucose excursion during an oral glucose tolerance test were assessed in mice. The effects of the combination of a compound of Formula (A) and compounds of Formula (B) with linagliptin (a DPP-4 inhibitor) or metformin were also assessed. Male C57BL/6J mice, approximately 10 weeks old, were acclimated to the facility and the oral dosing procedure. Mice were randomized into balanced treatment groups using body weight. Baseline glucose was assessed immediately before compound administration. […] Blood was assessed for glucose levels 20 min, 40 min, 60 min, and 120 min post D-(+)-glucose administration. The AUCs for blood glucose measures were calculated for each treatment from 0 to 120 min. Statistical analysis was performed on AUCs using one-way ANOVA versus vehicle, with Tukey's post-test.

human GPR40 = biological target: T2, human GPR40 (Homo sapiens, UniProt O14842); assay: Inositol phosphate (IP1) accumulation assay, CHO-K1 cells expressing human GPR40; assay type: cell-based; conditions: CHO hFFAR1 cells, IP1 HTRF, 90 min
T2 construct: host or cells: CHO-K1
T2 sequence (O14842 whole entry): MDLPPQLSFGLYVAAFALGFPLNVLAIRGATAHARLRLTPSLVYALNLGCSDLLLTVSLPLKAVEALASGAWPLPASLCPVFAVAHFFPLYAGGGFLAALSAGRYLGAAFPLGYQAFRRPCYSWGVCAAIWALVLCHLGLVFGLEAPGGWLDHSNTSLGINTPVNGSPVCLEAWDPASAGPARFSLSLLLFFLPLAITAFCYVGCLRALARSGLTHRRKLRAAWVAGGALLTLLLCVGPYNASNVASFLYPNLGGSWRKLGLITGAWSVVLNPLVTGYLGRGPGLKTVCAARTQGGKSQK
Method: CHO-K1 cells expressing human GPR40 were purchased from DiscoverX (95-1005C2). HEK293 cells expressing mouse FFAR1 were prepared using a mouse FFAR1 carrying plasmid purchased from OriGene Technologies (MR222997). The cells were transfected using Lipofectamine 2000 using manufacturer instructions and stable cell line was established from a single cell using geneticine selection. Assay ready frozen (ARF) cells were prepared and used throughout the study.
The assay was performed in a 384-well plate format using IP1 assay kit from Cis-Bio. ARF cells expressing FFAR1 (mouse and human) were thawed, washed and then plated in the appropriate medium (F12 based medium for CHO hFFAR1 and DMEM based medium for HEK293 mFFAR1—both were supplemented with 10% FBS and penicillin/streptomycin). 20 μL of 3.5×10^5 cells/mL were plated on a Poly D-Lysine coated 384-well white plate. The cells were then incubated for 16 hr at 37° C./5% CO2. After 16 hr the medium was removed and 15 μL of stimulation buffer containing the test compounds was added to the cells. The plates were then incubated for 90 min at 37° C./5% CO2. […]
[…] was measured using ClarioSTAR plate reader, calculating the ratio between emissions at 665 nm and 620 nm (HTRF ratio). […] EC50 and Max activity values were determined using a standard 4-parameter fit.

EC50 (human GPR119 (hGPR119))	SMILES	GLP-1 (fold increase) [1]	GLP-1 (fold increase) (male C57BL/6J mice [2]; 5 h post dose)	GLP-1 (fold increase) (male C57BL/6J mice [2]; 17 h post dose)	% Reduction in 2-h glucose AUC vs. vehicle (male C57BL/6J mice [4])	also measured
100 to 1000 nM	O=C(NCCCCS(=O)(=O)O)C1CN(C(=O)Cc2ccc(OCCCC3CCN(c4ncc(Cl)cn4)CC3)cc2F)C1 [Compound A65, 4-[[1-[2-[4-[3-[1-(5-chloropyrimidin-2-yl)-4-piperidyl]propoxy]-2-fluoro-phenyl]acetyl]azetidine-3-carbonyl]amino]butane-1-sulfonic acid]					
	COc1ccc(CCCC(C)(C)C)c(N2CCC(COc3cccc([C@@H](CP(C)(=O)O)C4CC4)c3)CC2)c1 [Compound B6, ((S)-2-cyclopropyl-2-(3-((1-(2-(4,4-dimethylpentyl)-5-methoxyphenyl)piperidin-4-yl)methoxy)phenyl)ethyl)(methyl)phosphinic acid]	4.0 fold increase	3.2 fold increase	1.9 fold increase	21%	% Weight Loss vs Vehicle ([3]; Study 2, DIO mice): 5.2%
	COc1ccc(F)c([C@H]2CC[C@H](COc3cccc([C@H](C[P@](C)(=O)O)C4CC4)c3)CC2)c1 (single isomer, unassigned) [Compound B1]	5.5 fold increase	1.9 fold increase	1.4 fold increase	14%	EC50 (human GPR40): ≤ 50 nM; % Weight Loss vs Vehicle ([3]; Study 1, DIO mice): 3.1%
	CC#CCn1c(N2CCC[C@@H](N)C2)nc2c1c(=O)n(Cc1nc(C)c3ccccc3n1)c(=O)n2C [linagliptin, reference compound]				17%	
100 to 1000 nM	CCCc1cnc(N2CCC(CCCOc3cc(F)c(CC(=O)N4CC(C(=O)NCCC[N+](C)(C)C)C4)c(F)c3)CC2)nc1 [Compound A13, 3-[[1-[2-[2,6-difluoro-4-[3-[1-(5-propylpyrimidin-2-yl)-4-piperidyl]propoxy]phenyl]acetyl]azetidine-3-carbonyl|amino]propyl-trimethyl-ammonium formate]					
≤ 100 nM	CCc1cnc(N2CCC(CCCOc3ccc(CC(=O)N4CC(CNC[C@H](O)[C@H](O)[C@@H](O)[C@H](O)C(=O)O)C4)c(F)c3)CC2)nc1 [Compound A36, (2S,3R,4S,5S)-6-[[1-[2-[4-[3-[1-(5-ethylpyrimidin-2-yl)-4-piperidyl]propoxy]-2-fluoro-phenyl]acetyl]azetidin-3-yl]methylamino]-2,3,4,5-tetrahydroxy-hexanoic acid]					
	O=C(Cc1ccc(OCCCC2CCN(c3ncc(Cl)cn3)CC2)cc1F)N1CC(CNC[C@H](O)[C@@H](O)[C@H](O)[C@H](O)CO)C1 [Compound A14, 2-[4-[3-[1-(5-chloropyrimidin-2-yl)-4-piperidyl]propoxy]-2-fluoro-phenyl]-1-[3-[[[(2S,3R,4R,5R)-2,3,4,5,6-pentahydroxyhexyl]amino]methyl]azetidin-1-yl]ethanone]	1.9 fold increase	1.6 fold increase	1.3 fold increase	14%	% Weight Loss vs Vehicle ([3]; Study 1, DIO mice): 2.5%
	CN(C)C(=N)N=C(N)N [metformin, reference compound]				26%	post-prandial glucose excursion (male C57BL/6J mice [4]; OGTT in mice): suppressed post-prandial glucose excursion
	COc1ccc(F)c([C@H]2CC[C@H](COc3cccc([C@@H](C[P@@](C)(=O)O)C4CC4)c3)CC2)c1 (single isomer, unassigned) [Compound B2]					EC50 (human GPR40): 50 to 250 nM
100 to 1000 nM	COCc1cnc(N2CCC(CCCOc3ccc(CC(=O)N4CC(CNCCNC(=O)NC(CO)(CO)CO)C4)c(F)c3)CC2)nc1 [Compound A51]					

— patent publication US20240115587A1, “COMBINATION THERAPIES” (Kallyope, Inc., priority 2022, published 2024)
